The values that follow are results of earlier work, collected in patent US10342235B2, “Formulations comprising phosphite” (Ceradis B.V., priority 2015, dated 2019).

The data set concerns rodents. The note with it: oral administration, dermal administration, inhalatory exposure.

Take potassium phosphite: the Toxicity in rodents entry is reported as “low toxicity”.
